pIC50: −log10 of the molar value.

For series [1], the target named is T1, Tyrosine-protein phosphatase non-receptor type 1 (Homo sapiens) (UniProt P18031).
T1 sequence (whole entry): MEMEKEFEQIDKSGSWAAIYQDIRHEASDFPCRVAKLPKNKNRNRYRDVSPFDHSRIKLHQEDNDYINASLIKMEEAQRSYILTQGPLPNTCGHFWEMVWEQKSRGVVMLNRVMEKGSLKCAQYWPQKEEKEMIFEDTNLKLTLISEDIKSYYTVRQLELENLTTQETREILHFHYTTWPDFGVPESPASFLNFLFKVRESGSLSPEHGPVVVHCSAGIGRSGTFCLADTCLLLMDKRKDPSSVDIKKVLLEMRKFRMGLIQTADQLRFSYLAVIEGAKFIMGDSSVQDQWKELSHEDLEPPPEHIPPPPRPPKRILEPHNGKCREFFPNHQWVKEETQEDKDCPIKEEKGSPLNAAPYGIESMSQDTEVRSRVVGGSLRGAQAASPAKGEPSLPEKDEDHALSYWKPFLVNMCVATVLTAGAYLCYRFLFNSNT
Nature of the series: Inhibition of recombinant human PTP1B using pNPP as substrate assessed as residual activity at 30 uM after 30 mins by spectrometric method relative to control.

Series [2] has as its target T2, Tyrosine-protein phosphatase non-receptor type 1 (Homo sapiens, UniProt P18031).
T2 sequence (P18031 whole entry): T1 sequence (whole entry)
As to the kind of experiment: Inhibition of recombinant human PTP1B using pNPP as substrate assessed as residual activity after 30 mins by spectrometric method.

For series [3], the target named is T1, Tyrosine-protein phosphatase non-receptor type 1 (Homo sapiens). Nature of the series: Inhibition of PTP1B in human HepG2 cells assessed as increase in insulin-stimulated IR tyrosine phosphorylation at Y1150/1151 residues preincubated for 30 mins followed by insulin addition measured after 5 mins by immuno blot method. Format: cell-based.
Series [4] concerns HepG2. Nature of the series: Cytotoxicity against human HepG2 cells assessed as decrease in cell viability at > 30 uM after 24 hrs by resazurin dye based assay. Particulars: hepg2, 24 h. (In general: Resazurin is reduced to fluorescent resorufin, in cell work by metabolically active cells.)
The subject of series [5] is HepG2. Nature of the series: Cytotoxicity against human HepG2 cells assessed as decrease in cell viability at > 30 uM after 24 hrs by crystal violet staining based assay. The conditions noted are these: hepg2, 24 h.

As to `COc1cc(C[C@H]2CO[C@H](c3ccc(O)c(OC)c3)[C@H]2CO)ccc1O`, the Activity in series [1] was found to be 86.1%.
As for `O=C(CCc1ccc(O)c(O)c1)c1c(O)cc(O)cc1O[C@@H]1O[C@H](CO)[C@@H](O)[C@H](O)[C@H]1O`, the Activity in series [1] was 102%.
The same measure, in the same setting: in the case of `COc1cc(/C=C/CO)ccc1O[C@@H]1O[C@H](CO)[C@@H](O)[C@H](O)[C@H]1O` it was 99.2%.
Usually pIC50 stands for the negative decadic logarithm of the IC50, by convention in mol/L. Take `O=C(O[C@@H]1[C@@H](O)[C@H](Oc2cc(O)c(C(=O)CCc3ccccc3)c(O)c2)O[C@@H]2COC(=O)c3cc(O)c(O)c(O)c3-c3c(cc(O)c(O)c3O)C(=O)O[C@@H]12)c1cc(O)c(O)c(O)c1` [THONNINGIANIN A]: the Activity in series [1] is 1.9%; in the series on HepG2 [4], “Toxic”; in the series on HepG2 [5] it was “Toxic”. Moreover, the pIC50 in series [2] is 5.36. For the same molecule, the inhibition entry in series [3] was “Dose-dependent effect”.
For `O=C(O[C@@H]1[C@@H](O)[C@H](Oc2cc(O)cc(O)c2C(=O)CCc2ccc(O)cc2)O[C@@H]2COC(=O)c3cc(O)c(O)c(O)c3-c3c(cc(O)c(O)c3O)C(=O)O[C@@H]12)c1cc(O)c(O)c(O)c1`, the Activity in series [1] turned out to be 20.8%. In series [2], the pIC50 was 4.71.
In the same order, the values of `O=C1OC[C@H]2O[C@@H](Oc3cc(O)c(C(=O)CCc4ccc(O)cc4)c(O)c3)[C@H](O)[C@@H](O)[C@@H]2OC(=O)c2cc(O)c(O)c(O)c2-c2c1cc(O)c(O)c2O` are 30.9% and 4.62.
For the molecule `O=C(CCc1ccccc1)c1c(O)cc(O[C@@H]2O[C@H](CO)[C@@H](O)[C@H](O)[C@H]2O)cc1O`, the Activity in series [1] was found to be 97.7%.
On the same count and under the same terms, in the case of `O=C(OC[C@H]1O[C@@H](Oc2cc(O)c(C(=O)CCc3ccccc3)c(O)c2)[C@H](O)[C@@H](O)[C@@H]1O)c1cc(O)c(O)c(O)c1` it was 99.4%; in that of `O=C(OC[C@H]1O[C@@H](Oc2cc(O)cc(O)c2C(=O)CCc2ccc(O)c(O)c2)[C@H](O)[C@@H](O)[C@@H]1O)c1cc(O)c(O)c(O)c1`, 91.7%.
The same measure, in the same setting: next, `O=C1OC[C@H]2O[C@@H](Oc3cc(O)cc(O)c3C(=O)CCc3ccc(O)c(O)c3)[C@H](O)[C@@H](O)[C@@H]2OC(=O)c2cc(O)c(O)c(O)c2-c2c1cc(O)c(O)c2O`: 84.4%; `COc1cc([C@H]2OC[C@H]3[C@@H]2CO[C@@H]3c2ccc(O)c(OC)c2)ccc1O`: 98.6%.
Turning to `O=C(O[C@@H]1[C@@H](O)[C@H](Oc2cc(O)cc(O)c2C(=O)CCc2ccc(O)c(O)c2)O[C@@H]2COC(=O)c3cc(O)c(O)c(O)c3-c3c(cc(O)c(O)c3O)C(=O)O[C@@H]12)c1cc(O)c(O)c(O)c1`, the Activity in series [1] was 29.2%. In addition, the pIC50 in series [2] is 4.61.
In the same order, the values of `O=C1OC[C@H]2O[C@@H](Oc3cc(O)c(C(=O)CCc4ccccc4)c(O)c3)[C@H](O)[C@@H](O)[C@@H]2OC(=O)c2cc(O)c(O)c(O)c2-c2c1cc(O)c(O)c2O` [THONNINGIANIN B] are 28.5% and 4.66.

For the origin of these results see ChEMBL document CHEMBL4196205, “Dihydrochalcone Glucosides from the Subaerial Parts of Thonningia sanguinea and Their in Vitro PTP1B Inhibitory Activities” (J Nat Prod, 2018).
